Assay results from patent publication USRE37781E1, “Substituted cyclic carbonyls and derivatives thereof useful as retroviral protease inhibitors” (DuPont Pharmaceuticals Company, priority 1991, dated 2002).
Like-named read-outs stand apart in the source and are kept apart here.

Assays:
[1] = target: T1, HIV protease (Human immunodeficiency virus type 1 group M subtype B, UniProt P04585); assay: biochemical; design: species or system HIV-1
T1 construct: plasmid containing HIV protease under the control of an inducible T7 promoter; made in house; host or cells: E. coli (inclusion bodies, T7 promoter)
Experimental: HIV Protease Inhibition Assay—Spectroscopic Method
Inclusion bodies were solubilized in 8M urea, 50 mM tris pH 8.0. Protease activity was recovered by dilution 20-fold into buffer containing 50 mM sodium acetate pH 5.5, 1 mM EDTA, 10% glycerol and 5% ethylene glycol. Enzyme was used at a final concentration of 1.0-10 ug/ml.
Stock solutions of 10 mM were prepared in DMSO.
All further dilutions were done in DMSO.

[2] = tested on: HIV-1 (RF) in MT-2 cells; assay: microbe, parasite or virus in culture; format: cell-based; details: read-out: IC90
Outline: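 Read-out: gag and pol viral RNA captured by 5′-biotinylated oligonucleotides on streptavidin-coated wells, detected with alkaline phosphatase-linked reporter oligonucleotides, calibrated against BH10 in vitro transcripts. Virus stocks (RF, MN, IIIB) come from H9 cultures; MT-2 host cells kept in RPMI 1640, 5% FCS.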

[3] = target: single-chain tethered dimer of HIV protease (Human immunodeficiency virus 1, UniProt P04585); assay: biochemical; format: biochemical; design: fused on or other part: A second copy of the same protease unit is joined to the first by a short peptide tether, giving one polypeptide
[4] = Human immunodeficiency virus 1, MT2, 48 h, Table 2d, class symbols
[5] = read-out: HPLC K1, Table 2d, class symbols
[6] = Human immunodeficiency virus 1, MT2, 48 h, Table 2d, HIV RNA assay
[7] = read-out: HPLC K1, Table 2d, HIV protease inhibition, HPLC method

C=CCN1C(=O)N(CC=C)[C@H](Cc2ccccc2)[C@@H](O)[C@H](O)[C@H]1Cc1ccccc1 [Example 1G]
Ki ([1]; Ki, Table 1a): 10 to 1000 nM

O=C1N(CCCc2ccccc2)C(Cc2ccccc2)C(O)C(O)C(Cc2ccccc2)N1CCCc1ccccc1 (stereo not shown) [Example 1AS]
Ki ([1]; Table 1a, read-out: Ki): 10 to 1000 nM

CCCN1C(=O)N(CCC)C(Cc2ccccc2)C(O)C(O)C1Cc1ccccc1 (stereo not shown) [Example 1V]
Ki ([1]; Ki): < 10 nM

O=C1N(Cc2cccc(OCc3ccccc3)c2)C(Cc2ccccc2)C(O)C(C(F)Cc2ccccc2)N1Cc1cccc(OCc2ccccc2)c1 (stereo not shown) [Example 8E]
Ki ([1]; Table 1e, read-out: Ki): 10 to 1000 nM

CC(C)C(NCCN1C(=O)N(CCO)C(Cc2ccccc2)C(O)C(O)C1Cc1ccccc1)C(=O)OCc1ccccc1 (stereo not shown) [Example 1T]
Ki ([1]; Table 1a, read-out: Ki): 10 to 1000 nM

COCCOCCN1C(=O)N(CCOCCOC)C(Cc2ccccc2)C(O)C(O)C1Cc1ccccc1 (stereo not shown) [Example 1J]
Ki ([1]; Table 1a, read-out: Ki): > 1000 nM

CC(C)=CCN1C(=O)N(C)C(Cc2ccccc2)C(O)C(O)C1Cc1ccccc1 (stereo not shown) [Example 2D]
Ki ([1]; Table 2A, read-out: Ki): 10 to 1000 nM
Ki ([1]; second table headed Table 2A, read-out: Ki): 10 to 1000 nM

CC(C)=CCCC(C)=CCN1C(=O)N(CC=C(C)CCC=C(C)C)C(Cc2ccccc2)C(O)C(O)C1Cc1ccccc1 (stereo not shown) [Example 1K]
Ki ([1]; Table 1a, read-out: Ki): > 1000 nM

CC(C)=CCN1C(=O)NC(Cc2ccccc2)C(O)C(O)C1Cc1ccccc1 (stereo not shown) [Example 1AE]
Ki ([1]; Table 1a, read-out: Ki): < 10 nM

C=CCN1C(=O)N(CC2CC2)C(Cc2ccccc2)C(O)C(O)C1Cc1ccccc1 (stereo not shown) [Example 1AW]
Ki ([1]; Table 1a, read-out: Ki): < 10 nM

O=C1NC(Cc2ccccc2)C(O)C(O)C(Cc2ccccc2)N1 (stereo not shown) [Example 1E]
Ki ([1]; Table 1a, read-out: Ki): > 1000 nM

O=C(O)c1cccc(CN2C(=O)N(CC3CC3)C(Cc3ccccc3)C(O)C(O)C2Cc2ccccc2)c1 (stereo not shown) [15WQ]
IC90 [2, 4]: < 10 µg/mL
melting point: 135 to 137 °C
Ki [3, 5]: < 10 nM

O=C1N(Cc2ccc(CO)cc2)C(Cc2ccccc2)C(O)C(O)C(Cc2ccccc2)N1Cc1cccc(O)c1 (stereo not shown) [10o]
IC90 [2, 4]: < 10 µg/mL
melting point: 141 to 144 °C
Ki [3, 5]: < 10 nM

Nc1ccc(CN2C(=O)N(Cc3ccc(N)cc3)C(Cc3ccccc3)C(O)C(O)C2Cc2ccccc2)cc1 (stereo not shown) [15CQ]
IC90 [2, 6]: < 10 µg/mL
melting point: 114 to 116 °C
Ki [3, 7]: < 10 nM

O=C1N(CC2CC2)C(Cc2ccc([N+](=O)[O-])cc2)C(O)C(O)C(Cc2ccccc2[N+](=O)[O-])N1CC1CC1 (stereo not shown) [Example 20A]
IC90 ([2]; Human immunodeficiency virus 1, MT2, Table 2i): < 10 µg/mL
melting point: 209.8 °C
Ki ([3]; read-out: HPLC Ki, Table 2i): < 10 nM

CCOC(=O)c1ccc(CN2C(=O)N(Cc3ccc(C(=O)OCC)cc3)C(Cc3ccccc3)C(O)C(O)C2Cc2ccccc2)cc1 (stereo not shown) [Example 11F]
IC90 [2, 4]: > 100 µg/mL
melting point: 174 to 178 °C
Ki [3, 5]: 10 to 1000 nM

O=C1N(CC=Cc2ccccc2)C(Cc2ccccc2)C(O)C(O)C(Cc2ccccc2)N1CC=Cc1ccccc1 (stereo not shown) [Example 1AU]
Ki ([1]; Table 1a, read-out: Ki): < 10 nM

NC(=NO)c1cccc(CN2C(=O)N(Cc3ccc4ccccc4c3)C(Cc3ccccc3)C(O)C(O)C2Cc2ccccc2)c1 (stereo not shown) [15AN]
IC90 [2, 6]: < 10 µg/mL
melting point: 192 to 193 °C
Ki [3, 7]: < 10 nM

O=C1N(Cc2cccc(OCCN3CCOCC3)c2)C(Cc2ccccc2)C(O)C(O)C(Cc2ccccc2)N1Cc1cccc(OCCN2CCOCC2)c1 (stereo not shown) [Example 15YG]
IC90 [2, 6]: < 10 µg/mL
melting point: 110 to 112 °C
Ki [3, 7]: 10 to 1000 nM

CC(C)C(NCCN1C(=O)N(CCNC(C(=O)OCc2ccccc2)C(C)C)C(Cc2ccccc2)C(O)C(O)C1Cc1ccccc1)C(=O)OCc1ccccc1 (stereo not shown) [Example 1U]
Ki ([1]; Table 1a, read-out: Ki): > 1000 nM

O=C1N(Cc2ccccc2)C(Cc2ccccc2)C(O)C(O)C(Cc2ccccc2)N1Cc1cccc(O)c1 (stereo not shown) [11I]
IC90 [2, 4]: < 10 µg/mL
melting point: 189 to 193 °C
Ki [3, 5]: < 10 nM

Nc1cccc(CN2C(=O)N(Cc3cccc(-c4cc[nH]n4)c3)C(Cc3ccccc3)C(O)C(O)C2Cc2ccccc2)c1 (stereo not shown) [Example 15CE]
IC90 [2, 6]: < 10 µg/mL
melting point: 136 to 138 °C
Ki [3, 7]: < 10 nM

NC(=NO)c1cccc(CN2C(=O)N(Cc3ccc(CO)cc3)C(Cc3ccccc3)C(O)C(O)C2Cc2ccccc2)c1 (stereo not shown) [15AH]
IC90 [2, 6]: < 10 µg/mL
melting point: 198 to 199 °C
Ki [3, 7]: < 10 nM

CC(C)C(NCCN1C(=O)N(CCO)C(Cc2ccccc2)C(O)C(O)C1Cc1ccccc1)C(=O)OCc1ccccc1 (stereo not shown) [Example 1L]
Ki ([1]; Table 1a, read-out: Ki): > 1000 nM

O=C(NCc1ccccc1)Oc1cccc(CN2C(=O)N(Cc3cccc(OC(=O)NCc4ccccc4)c3)C(Cc3ccccc3)C(O)C(O)C2Cc2ccccc2)c1 (stereo not shown) [Example 9L]
IC90 [2, 4]: < 10 µg/mL
melting point: 150 °C (dec.)
Ki [3, 5]: 10 to 1000 nM

O=C1NC(Cc2ccccc2)C(O)C(O)C(Cc2ccccc2)N1Cc1cccc(CO)c1 (stereo not shown) [15WI]
IC90 [2, 4]: < 10 µg/mL
melting point: 176 to 177 °C
Ki [3, 5]: < 10 nM

C=CCN1C(=O)N(CC=C)[C@H](Cc2ccccc2)[C@H](O)[C@H]1[C@H](O)Cc1ccccc1 [Example 8AA]
Ki ([1]; Table 1e, read-out: Ki): 10 to 1000 nM
